Assay results: patent publication US20090018162A1, “USE OF 6-(3-CHLORO-2-FLUOROBENZYL)-1-[(2S)-1-HYDROXY-3-METHYLBUTAN-2-YL]-7-METHOXY-4-OXO-1,4-DIHYDROQUINOLINE-3-CARBOXYLIC ACID OR SALT THEREOF FOR TREATING RETROVIRUS INFECTION” (priority 2006, published 2009)
Where two headings read alike, the source gives them in different places.

How the values were obtained:
[1] = test system: HIV-1 macrophage-tropic virus strains; experiment: microbe, parasite or virus in culture; details: in Homo sapiens
[2] = MTS staining for PBMC viability (cytotoxicity); details: human
human PBMCs [3] = experiment: MTS staining for PBMC viability (cytotoxicity); details: read-out: TC50, PBMCs, MTS
HIV-2 CDC 310319 [4] = details: HIV-2 CDC 310319 in PBMCs
[5] = test system: HIV-1 macrophage-tropic virus strains
HIV-1 clinical isolates [6] = test system: HIV-1 clinical isolates
[7] = test system: recombinant HIV-1 clones (patient protease/RT sequences in HIV-1 NL4-3); experiment: microbe, parasite or virus in culture; type: cell-based; details: one experiment
[8] = MTS cytotoxicity in monocyte/macrophage cultures; type: cell-based; details: human, fresh adherent monocyte/macrophage cultures, HIV-infected, macrophages, MTS, read-out: TC50
Method: Anti-HIV Efficacy Evaluation in Fresh Human Monocyte/Macrophage. Monocytes/macrophages were allowed to adhere to the interior 60 wells of a 96 well flat bottomed plate for 2 to 18 hours at 37° C., 5% CO2. Following 6 to 14 days in culture, the monocyte/macrophage cultures were washed 3 times to remove any non-adherent cells and serially diluted test compounds were added followed by the addition of a pre-titered amount of HIV. Cultures were washed a final time by media removal 24 hours post infection, fresh compound added and the cultures continued for an additional six days. […] At assay termination, virus replication was measured by collecting cell-free supernatant samples which were analyzed for HIV p24 antigen content using a commercially available p24 ELISA assay (Coulter). […] MTS staining for PBMC viability to measure cytotoxicity. […] The mitochondrial enzymes of metabolically active cells metabolize MTS to yield a soluble formazan product. This allows the rapid quantitative analysis of cell viability and compound cytotoxicity. […] At termination of the assay, 20 μL of MTS reagent was added per well. The microtiter plates were then incubated 4-6 hrs at 37° C. The incubation intervals were chosen based on empirically determined times for optimal dye reduction. […] Data analysis.

HIV-1 clinical isolates [9] = experiment: microbe, parasite or virus in culture; details: Human immunodeficiency virus 1, PBMC
HIV-2 CDC 310319 [10] = experiment: microbe, parasite or virus in culture; details: Human immunodeficiency virus 2, PBMC
[11] = test system: drug-resistant HIV-1 isolates; experiment: Anti-HIV efficacy in fresh human PBMCs, drug-resistant HIV-1 isolates; details: for IC50: Human immunodeficiency virus 1, PBMC, in Homo sapiens
human PBMCs [12] = details: 7 days

## COc1cc2c(cc1Cc1cccc(Cl)c1F)c(=O)c(C(=O)O)cn2[C@H](CO)C(C)C [Compound I, 6-(3-chloro-2-fluorobenzyl)-1-[(2S)-1-hydroxy-3-methylbutan-2-yl]-7-methoxy-4-oxo-1,4-dihydroquinoline-3-carboxylic acid]
[1]; Human immunodeficiency virus 1, BAL, Macrophage, HIV-1 Ba-L in macrophages
  IC50: 0.67 nM
[1]; Human immunodeficiency virus 1, Macrophage, HIV-1 ADA in macrophages
  IC50: 0.07 nM
[1]; Human immunodeficiency virus 1, Macrophage, HIV-1 JR-CSF in macrophages
  IC50: 0.31 nM
[2]
  CC50 at 7 days: > 100 nM
Human PBMCs [3]; 52-52 assay
  CC50: > 100 nM
Human PBMCs [3]; 96USHIPS7 assay
  CC50: > 100 nM
Human PBMCs [3]; 144-44 assay
  CC50: > 100 nM
Human PBMCs [3]; 1002-60 assay
  CC50: > 100 nM
Human PBMCs [3]; 1064-52 assay
  CC50: > 100 nM
Human PBMCs [3]; BFC01 assay
  CC50: > 100 nM
Human PBMCs [3]; BR/92/025 assay
  CC50: > 100 nM
Human PBMCs [3]; BR/93/017 assay
  CC50: > 100 nM
Human PBMCs [3]; BR/93/020 assay
  CC50: > 100 nM
Human PBMCs [3]; BR/93/022 assay
  CC50: > 100 nM
Human PBMCs [3]; CMU 02 assay
  CC50: > 100 nM
Human PBMCs [3]; HIV-2 CDC 310319 assay
  CC50: > 100 nM
Human PBMCs [3]; JV 1083 assay
  CC50: > 100 nM
Human PBMCs [3]; RW/92/016 assay
  CC50: > 100 nM
Human PBMCs [3]; UG/92/046 assay
  CC50: > 100 nM
HIV-2 CDC 310319 [4]
  TI (TC50/IC50): >188.7
[5]; HIV-1 ADA in macrophages
  TI (TC50/IC50): >7142.9
[5]; HIV-1 Ba-L in macrophages
  TI (TC50/IC50): >746.3
[5]; HIV-1 JR-CSF in macrophages
  TI (TC50/IC50): >322.6
HIV-1 clinical isolates [6]; HIV-1 96USHIPS7 in PBMCs
  TI (TC50/IC50): >384.6
HIV-1 clinical isolates [6]; HIV-1 BFC01 in PBMCs
  TI (TC50/IC50): >85.5
HIV-1 clinical isolates [6]; HIV-1 BR/92/021 in PBMCs
  TI (TC50/IC50): >131.6
HIV-1 clinical isolates [6]; HIV-1 BR/92/025 in PBMCs
  TI (TC50/IC50): >1000.0
HIV-1 clinical isolates [6]; HIV-1 BR/93/017 in PBMCs
  TI (TC50/IC50): >555.6
HIV-1 clinical isolates [6]; HIV-1 BR/93/020 in PBMCs
  TI (TC50/IC50): >135.1
HIV-1 clinical isolates [6]; HIV-1 BR/93/022 in PBMCs
  TI (TC50/IC50): >88.5
HIV-1 clinical isolates [6]; HIV-1 CMU 02 in PBMCs
  TI (TC50/IC50): >79.4
HIV-1 clinical isolates [6]; HIV-1 JV 1083 in PBMCs
  TI (TC50/IC50): >285.7
HIV-1 clinical isolates [6]; HIV-1 RW/92/016 in PBMCs
  TI (TC50/IC50): >243.9
HIV-1 clinical isolates [6]; HIV-1 UG/92/046 in PBMCs
  TI (TC50/IC50): >200.0
[7]; Human immunodeficiency virus 1, NL43, 120 recombinant clones
  EC50: 1.06 nM
[7]; Human immunodeficiency virus 1, NL43, Reference clone (NL4-3), ten replicates
  EC50: 1.11 nM
[8]; ADA assay
  CC50 at 7 days: > 500 nM
[8]; Ba-L assay
  CC50 at 7 days: > 500 nM
[8]; JR-CSF assay
  CC50 at 7 days: > 100 nM
HIV-1 clinical isolates [9]; HIV-1 96USHIPS7 (subtype /B, R5) in PBMCs
  IC50: 0.26 nM
HIV-1 clinical isolates [9]; HIV-1 BR/92/021 (subtype B/B, R5) in PBMCs
  IC50: 0.76 nM
HIV-1 clinical isolates [9]; HIV-1 BR/93/020 (subtype F/F, R5/X4) in PBMCs
  IC50: 0.74 nM
HIV-1 clinical isolates [9]; HIV-1 CMU 02 (subtype /EA, X4) in PBMCs
  IC50: 1.26 nM
HIV-1 clinical isolates [9]; HIV-1 JV 1083 (subtype /G, R5) in PBMCs
  IC50: 0.35 nM
HIV-1 clinical isolates [9]; HIV-1 RW/92/016 (subtype A/A, R5) in PBMCs
  IC50: 0.41 nM
HIV-1 clinical isolates [9]; HIV-1 UG/92/046 (subtype D/D, X4) in PBMCs
  IC50: 0.5 nM
HIV-2 CDC 310319 [10]
  IC50: 0.53 nM
[11]; HIV-1 52-52 in PBMCs
  TI (TC50/IC50): >588.2
[11]; HIV-1 144-44 in PBMCs
  TI (TC50/IC50): >138.89
[11]; HIV-1 1002-60 in PBMCs
  TI (TC50/IC50): >769.2
[11]; HIV-1 1064-52 in PBMCs
  TI (TC50/IC50): >158.7
[11]; HIV-1 MDR 769 in PBMCs
  TI (TC50/IC50): >555.6
[11]; HIV-1 MDR 807 in PBMCs
  TI (TC50/IC50): >88.5
[11]; HIV-1 MDR 1385 in PBMCs
  TI (TC50/IC50): >5000.0
[11]; HIV-1 MDR 3761 in PBMCs
  TI (TC50/IC50): >137.0
[11]; HIV-1 52-52 (protease-inhibitor resistant) in PBMCs
  IC50: 0.17 nM
[11]; against several viruses (e.g., MDR 1385, MDR 3761) in PBMCs
  IC50: < 1 nM
[11]; multi-drug-resistant HIV-1 MDR 769 in PBMCs
  IC50: 0.18 nM
[11]; multi-drug-resistant HIV-1 MDR 807 in PBMCs
  IC50: 1.13 nM
[11]; multi-drug-resistant HIV-1 MDR 1385 in PBMCs
  IC50: 0.02 nM
[11]; multi-drug-resistant HIV-1 MDR 3761 in PBMCs
  IC50: 0.73 nM
Human PBMCs [12]
  CC50: > 100 nM
